“Also recorded” adds a separate entry of the source. Like-named read-outs stand apart in the source and are kept apart here.
What was measured:
[1] = system: porcine small intestine
Procedure: Porcine Small Intestinal (SI) Permeability Procedure • Full thickness pig small intestinal delivered to Solubest on the day of the experiment. • Experiments were carried out on 6 slices 2 cm*2 cm with full thickness pig small intestinal sample • The intestinal was prepared so brush border side is facing the donor compartment. • According to Solubest protocol the excess mucus and connective tissue were removed • The receiver compartment contains 0.01M Phosphate Buffer pH 7.4 (PBS). • Receiver's samples were withdrawn at 5 time points (30 min, 60 min, 120 min, 4 hours and 6 hours). • Water pump was set to temp 38±1° C. in order to keep fixed temp in receptor department at 37±1° C.

[2] = in vitro; conditions: pig, pH 7.4
Procedure: (§1) The intestine was prepared so the mucous side will be facing the donor compartment.

[3] = system: porcine large intestine (colon); experiment: in vitro; conditions: pig, 10 mM, pH 7.4
Procedure: as §1

[4] = cited from earlier work
[5] = system: porcine stomach (cardia); conditions: for concentration in receptor compartment, Propranolol stomach, AVG / concentration in receptor compartment, Propranolol stomach: 10 mM donor solution; for concentration in receptor compartment, Propranolol stomach: single chambers
[6] = system: PHMG poisoning; experiment: Acute hepatitis caused by alcohol substitute PHMG in rats; conditions: single intraperitoneal injection, 50 mg/100 g
Procedure: The experiment was carried out on 25 male white outbred rats weighing 200-300 g, in accordance with the recommendations of the international ethics committees on the humane treatment of laboratory animals (EU Council Directive 86/609 EEC dated Nov. 24, 1986). To create an experimental model, an aqueous solution of PHMG was used, which was administered intraperitoneally at a dose of 50 mg/100 g.

## CC(C)NCC(O)COc1cccc2ccccc12 (centres unmarked) [Propranolol]
[1]
  permeability through small intestine tissue, in words: well adsorbed
[1]; 10 mM donor solution, 0 min
  concentration in receptor compartment, small intestine, AVG: 0 ng/mL
[1]; 10 mM donor solution, 0 min, single chambers
  concentration in receptor compartment, small intestine: 0 ng/mL
[1]; 10 mM donor solution, 30 min
  concentration in receptor compartment, small intestine, AVG: 1000 ng/mL
[1]; 10 mM donor solution, 60 min
  concentration in receptor compartment, small intestine, AVG: 5000 ng/mL
[1]; 10 mM donor solution, 120 min
  concentration in receptor compartment, small intestine, AVG: 13000 ng/mL
[1]; 10 mM donor solution, 240 min
  concentration in receptor compartment, small intestine, AVG: 33000 ng/mL
[1]; 10 mM donor solution, 360 min
  concentration in receptor compartment, small intestine, AVG: 55000 ng/mL
[1]; listed as propranolol
  permeability through small intestine tissue, in words: permeates well
[2]
  recovery at 0 min, 10 mM: 0%
  recovery at 30 min, 10 mM: 0.16%
  recovery at 60 min, 10 mM: 0.4%
  recovery at 120 min, 10 mM: 1.04%
  recovery at 240 min, 10 mM: 2.36%
  recovery at 360 min, 10 mM: 3.43%
  recovery at 720 min, 10 mM: 6.47%
[3]; 0 min
  concentration in receptor comp, large intestine, AVG: 0 ng/mL
  concentration in receptor compartment, large intestine: 0 ng/mL
  mg in receptor comp: 0.000 mg
[3]; 30 min
  concentration in receptor comp, large intestine, AVG: 2000 ng/mL
  mg in receptor comp: 0.010 mg
[3]; 60 min
  concentration in receptor comp, large intestine, AVG: 5000 ng/mL
  mg in receptor comp: 0.026 mg
[3]; 120 min
  concentration in receptor comp, large intestine, AVG: 14000 ng/mL
  mg in receptor comp: 0.068 mg
[3]; 240 min
  concentration in receptor comp, large intestine, AVG: 31000 ng/mL
  mg in receptor comp: 0.154 mg
[3]; 360 min
  concentration in receptor comp, large intestine, AVG: 45000 ng/mL
  mg in receptor comp: 0.223 mg
[3]; 720 min
  concentration in receptor comp, large intestine, AVG: 84000 ng/mL
  mg in receptor comp: 0.421 mg
[4]; after ingestion
  time of peak plasma levels: 1 to 3 h
[4]; high solubility, high permeability
  BSC classification: class 1
[5]
  permeation through stomach tissue, in words: almost no permeation; also recorded: poorly penetrate through the stomach tissue
[5]; 0 min
  concentration in receptor compartment, Propranolol stomach, AVG: 0 ng/mL
  concentration in receptor compartment, Propranolol stomach: 0 ng/mL
[5]; 30 min
  concentration in receptor compartment, Propranolol stomach, AVG: 0 ng/mL
  concentration in receptor compartment, Propranolol stomach: 0 ng/mL
[5]; 60 min
  concentration in receptor compartment, Propranolol stomach, AVG: 0 ng/mL
  concentration in receptor compartment, Propranolol stomach: 0 ng/mL
[5]; 120 min
  concentration in receptor compartment, Propranolol stomach, AVG: 0 ng/mL
  concentration in receptor compartment, Propranolol stomach: 0 ng/mL
[5]; 240 min
  concentration in receptor compartment, Propranolol stomach, AVG: 0 ng/mL
  concentration in receptor compartment, Propranolol stomach: 0 ng/mL
[5]; 420 min
  concentration in receptor compartment, Propranolol stomach, AVG: 0 ng/mL
  concentration in receptor compartment, Propranolol stomach: 0 ng/mL

## polyhexamethyleneguanidine [PHMG]
[6]
  mortality: about 70%

Reference: US20210379063A1, “ORAL AMINODIHYDROPHTHALAZINEDIONE COMPOSITIONS AND THEIR USE IN THE TREATMENT OF NON-VIRAL HEPATITIS” (Immunopharma Plus D.O.O., priority 2018, published 2021)
